The term inhibition denotes the share of the control response that was lost under treatment. The term IC50 denotes the concentration needed to halve the response being measured. Higher therefore signals a need for much substance.

Where a name gives a salt, the structure may show the parent alone. Calls of active or inactive are those of the source. The rule behind the calls is not given here. Some results are limits rather than exact numbers.

Test [1] has as its target DNA topoisomerase 2-alpha (Homo sapiens) (UniProt P11388). The test can be described thus: Inhibition of human recombinant topoisomerase-2alpha assessed as inhibition of relaxation of supercoiled pBR322 plasmid DNA at 20 uM measured after 1 hr by ethidium bromide staining based agarose gel electrophoresis relative to control etoposide.
Test [2] has the same target. Nature of the test: Inhibition of human recombinant topoisomerase-2alpha assessed as inhibition of relaxation of supercoiled pBR322 plasmid DNA at 20 uM measured after 1 hr by ethidium bromide staining based agarose gel electrophoresis relative to control.
In the next test the test system is T47D. The test can be described thus: Antiproliferative activity against human T47D cells incubated for 72 hrs by CCK8 assay. In kind it is functional, cell-based.
In another test the test system is HeLa. The test can be described thus: Antiproliferative activity against human HeLa cells incubated for 72 hrs by CCK8 assay. In kind it is functional, cell-based. (Formazan colour is commonly taken as a measure of viable cells.)
Test [3] concerns the target DNA topoisomerase 2-alpha (Homo sapiens) (UniProt P11388). Nature of the test: Inhibition of human recombinant topoisomerase-2alpha assessed as inhibition of relaxation of supercoiled pBR322 plasmid DNA at 100 uM measured after 1 hr by ethidium bromide staining based agarose gel electrophoresis relative to control etoposide.
Test [4] has the same target. The test can be described thus: Inhibition of human recombinant topoisomerase-2alpha assessed as inhibition of relaxation of supercoiled pBR322 plasmid DNA at 100 uM measured after 1 hr by ethidium bromide staining based agarose gel electrophoresis relative to control.
A further test has as its system HCT-15. Nature of the test: Antiproliferative activity against human HCT15 cells incubated for 72 hrs by CCK8 assay. In kind it is functional, cell-based. Particulars: HCT-15, 72 h.
Test [5] concerns the target T1, DNA topoisomerase 1 (Homo sapiens) (UniProt P11387).
T1 sequence (whole entry): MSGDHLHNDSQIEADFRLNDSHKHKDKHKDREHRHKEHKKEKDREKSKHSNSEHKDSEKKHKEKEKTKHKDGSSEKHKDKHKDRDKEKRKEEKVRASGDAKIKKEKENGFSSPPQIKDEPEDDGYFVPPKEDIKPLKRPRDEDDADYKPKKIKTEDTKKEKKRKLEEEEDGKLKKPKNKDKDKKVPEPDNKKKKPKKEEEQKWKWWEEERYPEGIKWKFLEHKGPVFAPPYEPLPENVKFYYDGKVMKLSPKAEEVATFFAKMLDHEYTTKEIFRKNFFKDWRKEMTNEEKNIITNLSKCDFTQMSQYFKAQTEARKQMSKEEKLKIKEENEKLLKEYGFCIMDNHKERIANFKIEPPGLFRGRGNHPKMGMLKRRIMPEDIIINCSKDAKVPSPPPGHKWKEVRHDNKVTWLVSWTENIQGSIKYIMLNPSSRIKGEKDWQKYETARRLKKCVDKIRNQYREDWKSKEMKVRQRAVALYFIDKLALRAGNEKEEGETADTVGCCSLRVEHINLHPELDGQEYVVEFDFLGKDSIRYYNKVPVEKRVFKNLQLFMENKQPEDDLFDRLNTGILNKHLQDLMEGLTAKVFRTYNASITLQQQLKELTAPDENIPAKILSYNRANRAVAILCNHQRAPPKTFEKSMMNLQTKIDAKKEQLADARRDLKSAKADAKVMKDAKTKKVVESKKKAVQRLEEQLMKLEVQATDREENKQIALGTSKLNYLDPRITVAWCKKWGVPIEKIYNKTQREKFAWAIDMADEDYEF
The test can be described thus: Inhibition of human recombinant topoisomerase-1 assessed as inhibition of relaxation of supercoiled pBR322 plasmid DNA at 100 uM measured after 1 hr by ethidium bromide staining based agarose gel electrophoresis relative to control.

Test [6] concerns the target T1, DNA topoisomerase 1 (Homo sapiens). The test can be described thus: Inhibition of human recombinant topoisomerase-1 assessed as inhibition of relaxation of supercoiled pBR322 plasmid DNA at 20 uM measured after 1 hr by ethidium bromide staining based agarose gel electrophoresis relative to control.

Sequence of DNA topoisomerase 2-alpha (Homo sapiens) (P11388 whole entry): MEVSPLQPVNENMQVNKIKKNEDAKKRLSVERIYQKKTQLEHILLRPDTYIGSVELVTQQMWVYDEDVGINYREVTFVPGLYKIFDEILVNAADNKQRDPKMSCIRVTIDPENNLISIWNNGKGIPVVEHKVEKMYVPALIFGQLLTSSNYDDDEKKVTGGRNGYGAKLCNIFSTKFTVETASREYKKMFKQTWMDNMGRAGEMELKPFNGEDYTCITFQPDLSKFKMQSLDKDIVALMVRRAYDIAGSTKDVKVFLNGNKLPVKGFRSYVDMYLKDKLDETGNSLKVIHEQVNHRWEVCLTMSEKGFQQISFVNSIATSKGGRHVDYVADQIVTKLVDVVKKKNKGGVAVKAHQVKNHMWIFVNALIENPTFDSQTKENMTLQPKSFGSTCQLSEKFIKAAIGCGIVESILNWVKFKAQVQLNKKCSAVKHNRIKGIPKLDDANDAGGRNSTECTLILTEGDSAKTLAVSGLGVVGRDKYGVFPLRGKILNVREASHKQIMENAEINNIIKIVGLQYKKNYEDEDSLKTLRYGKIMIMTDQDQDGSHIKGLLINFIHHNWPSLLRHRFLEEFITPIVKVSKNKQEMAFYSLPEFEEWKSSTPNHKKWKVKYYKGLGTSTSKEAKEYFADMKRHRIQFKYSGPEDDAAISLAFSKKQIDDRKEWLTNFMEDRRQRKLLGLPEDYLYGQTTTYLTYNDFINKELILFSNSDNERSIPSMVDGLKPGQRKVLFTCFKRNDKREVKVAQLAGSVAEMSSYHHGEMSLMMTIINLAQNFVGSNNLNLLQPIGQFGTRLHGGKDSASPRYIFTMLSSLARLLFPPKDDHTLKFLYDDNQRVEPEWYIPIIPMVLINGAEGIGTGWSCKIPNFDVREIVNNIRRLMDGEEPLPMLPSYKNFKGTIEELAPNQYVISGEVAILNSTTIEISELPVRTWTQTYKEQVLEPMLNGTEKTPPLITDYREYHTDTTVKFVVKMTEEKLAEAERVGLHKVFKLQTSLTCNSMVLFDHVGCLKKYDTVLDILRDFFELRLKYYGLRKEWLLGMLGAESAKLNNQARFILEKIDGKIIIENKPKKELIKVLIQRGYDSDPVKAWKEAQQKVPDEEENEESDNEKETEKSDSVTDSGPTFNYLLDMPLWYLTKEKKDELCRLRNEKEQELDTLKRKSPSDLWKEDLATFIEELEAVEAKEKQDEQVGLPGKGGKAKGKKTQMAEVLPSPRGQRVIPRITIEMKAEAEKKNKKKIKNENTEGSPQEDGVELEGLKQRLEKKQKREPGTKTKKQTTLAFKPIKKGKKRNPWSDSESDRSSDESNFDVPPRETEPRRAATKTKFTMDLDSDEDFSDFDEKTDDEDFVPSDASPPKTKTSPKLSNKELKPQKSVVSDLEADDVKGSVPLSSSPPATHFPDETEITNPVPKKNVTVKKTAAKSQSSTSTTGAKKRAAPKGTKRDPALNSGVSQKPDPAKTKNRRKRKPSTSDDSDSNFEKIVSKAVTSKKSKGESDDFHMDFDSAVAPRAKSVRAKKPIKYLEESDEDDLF

Consider `Oc1cccc(-c2cc(-c3ccccc3)c3oc4cc(O)ccc4c3n2)c1`, for which the Ratio in test [1] came out at 0.82; in [3], 0.6. The inhibition in test [2] was 32.5%; in test [4] it was 46.3%; in test [5], 15.9%. Further, the results for the IC50 in the test with T47D, in the test with HeLa and in the test with HCT-15 were 2.79 µM, more than 50 µM and more than 50 µM, respectively.
As to `Oc1cccc(-c2cc(-c3ccccc3)nc3c2oc2cc(O)ccc23)c1`, the Ratio in test [1] was found to be 0.84; in test [3], 1.58. For the same compound, the inhibition in [2] is 41.9%; in test [4], 98%; in test [5], 27.4%. The IC50 in the test on T47D is 0.34 µM; with HeLa, 3.27 µM; in the test with HCT-15 it was 4.11 µM.
Consider `Oc1ccc(-c2cc(-c3cccc(O)c3)nc3c2oc2cc(O)ccc23)cc1`, for which the Ratio was 0.91 in test [1] and 0.94 in test [3]. Also, the inhibition in [2] turned out to be 45.1%; in test [6] it was 60.9%; in test [4], 58.4%; in [5], 71.7%. In addition, the values for the IC50 in the test with T47D, in the test on HeLa and with HCT-15 were 5.25 µM, 29.1 µM and 23.9 µM, respectively.
Consider `Oc1cccc(-c2cc(-c3ccccc3O)c3oc4cc(O)ccc4c3n2)c1`, for which the Ratio came to 0.31 in test [1] and 0.82 in [3]. For the same compound, the inhibition was determined as 12% in test [2], 0% in test [6], 63% in [4] and 33.9% in test [5]. The IC50 was 0.64 µM with T47D, 3.63 µM in the test on HeLa and 2.5 µM in the test on HCT-15.
For `Oc1ccc(-c2cc(-c3ccc(O)cc3)c3oc4cc(O)ccc4c3n2)cc1`, the Ratio in test [1] turned out to be 1.33; in test [3], 1.15. Moreover, the inhibition in test [2] amounted to 65.9%; in [6], 18.6%; in [4], 71%; in test [5], 33.8%. Further, the IC50 is 0.17 µM with T47D, 3.32 µM in the test on HeLa and 4.21 µM with HCT-15.
`Oc1ccc(-c2cc(-c3ccccc3O)nc3c2oc2cc(O)ccc23)cc1`: the figures for the Ratio in [1] and in test [3] were 1.42 and 1.62, respectively. The inhibition in [2] worked out at 70.8%; in test [6], 0%; in [4], 100%; in [5], 39.9%. Also, the figures for the IC50 in the test with T47D, in the test on HeLa and in the test on HCT-15 were 1.97 µM, 3.62 µM and 9.34 µM, respectively.
`Oc1cccc(-c2cc(-c3ccccc3O)nc3c2oc2cc(O)ccc23)c1`: the Ratio in test [1] turned out to be 1.53; in [3], 1.6. Moreover, the figures for the inhibition in [2], in test [4] and in test [5] were 76%, 99.1% and 25.6%, respectively. Also, the IC50 in the test on T47D was determined as 1.26 µM; in the test on HeLa, 3.39 µM; in the test with HCT-15 it was 6.96 µM.
As for `Oc1ccc(-c2cc(-c3ccccc3)nc3c2oc2cc(O)ccc23)cc1`, the results for the inhibition in test [6], in test [4] and in test [5] were 0%, 0.4% and 30.3%, respectively. Further, the IC50 with T47D, in the test on HeLa and with HCT-15 was more than 50 µM in each case. The inhibition result in [3] was “inactive”.
With `Oc1ccc2c(c1)oc1c(-c3ccccc3)cc(-c3ccccc3O)nc12`, the Ratio is 1.33 in test [1] and 1.08 in test [3]. The inhibition stood at 52.6% in [2], 83.1% in test [4] and 18.2% in test [5]. Further, the half-inhibitory concentration (IC50) was determined as 0.71 µM with T47D, 4.11 µM with HeLa and 1.6 µM in the test on HCT-15.
For the compound `Oc1ccc2c(c1)oc1c(-c3ccccc3O)cc(-c3ccccc3O)nc12`, the values for the Ratio in test [1] and in test [3] were 0.96 and 0.6, respectively. Also, the inhibition was 38% in test [2], 0% in [6], 46% in test [4] and 30.1% in test [5]. Moreover, the IC50 in the test on T47D was 1.03 µM; in the test on HeLa, more than 50 µM; in the test with HCT-15, more than 50 µM.
For `Oc1ccc2c(c1)oc1c(-c3ccccc3O)cc(-c3ccccc3)nc12`, the Ratio in test [1] came to 0.48; in test [3], 0.69. In addition, the inhibition in [2] worked out at 19.1%; in [4], 52.5%; in test [5] it was 14.2%. Moreover, the IC50 in the test on T47D was determined as 0.74 µM; in the test on HeLa it was 6.93 µM; in the test on HCT-15, 5.74 µM.
For `Oc1ccc(-c2cc(-c3cccc(O)c3)c3oc4cc(O)ccc4c3n2)cc1`, the Ratio is 1.11 in test [1] and 1.07 in test [3]. The inhibition was determined as 55.1% in [2], 38.1% in test [6], 66.1% in test [4] and 66.3% in test [5]. Besides, the values for the IC50 in the test on T47D, in the test on HeLa and in the test with HCT-15 were 0.19 µM, 2.16 µM and 3.73 µM, respectively.
Take `Oc1ccc(-c2cc(-c3ccccc3)c3oc4cc(O)ccc4c3n2)cc1`: the Ratio was determined as 1.83 in test [1] and 1.02 in test [3]. Moreover, the inhibition in [2] was determined as 72.2%; in test [6] it was 0%; in test [4], 78.4%; in [5], 43.9%. Also, the IC50 in the test with T47D was 5.3 µM; with HeLa, more than 50 µM; in the test on HCT-15 it was more than 50 µM.
For `Oc1ccc2c(c1)oc1c(-c3ccccc3)cc(-c3ccccc3)nc12`, the results for the inhibition in [6], in [4] and in test [5] were 0%, 18.3% and 30.8%, respectively. Moreover, the 50% inhibitory concentration (IC50) in the test with T47D, with HeLa and in the test with HCT-15 was more than 50 µM in each case.
`Oc1ccc(-c2cc(-c3ccccc3O)c3oc4cc(O)ccc4c3n2)cc1`: the Ratio was found to be 0.73 in test [1] and 1.12 in test [3]. Further, the values for the inhibition in test [2], in [4] and in test [5] were 29%, 87.3% and 3.3%, respectively. The concentration for half-maximal inhibition (IC50) in the test with T47D worked out at 0.62 µM; with HeLa, 2.86 µM; in the test on HCT-15, 1.26 µM.
Take `Oc1cccc(-c2cc(-c3cccc(O)c3)c3oc4cc(O)ccc4c3n2)c1`: the Ratio in [1] was 1.49; in test [3] it was 1.62. In addition, the values for the inhibition in test [2], in test [4] and in test [5] were 74.1%, 100% and 22.4%, respectively. In addition, the IC50 with T47D was determined as 0.59 µM; in the test on HeLa, 0.86 µM; in the test with HCT-15 it was 1.22 µM.
Turning to `COc1cccc2c1C(=O)c1c(O)c3c(c(O)c1C2=O)C[C@@](O)(C(=O)CO)C[C@@H]3O[C@H]1C[C@H](N)[C@H](O)[C@H](C)O1` [DOXORUBICIN HYDROCHLORIDE], the IC50 in the test with HeLa came out at 1.5 µM; with HCT-15, 0.51 µM.

The values are drawn from ChEMBL document CHEMBL4184253, “Design, synthesis, and structure-activity relationships of new benzofuro[3,2-b]pyridin-7-ols as DNA topoisomerase II inhibitors” (Bioorg Med Chem Lett, 2018).
